Each structure is given as a SMILES string.

Results on four compounds are retold here after ChEMBL document CHEMBL5352488, “Development of novel S-N3-DABO derivatives as potent non-nucleoside reverse transcriptase inhibitors with improved potency and selectivity” (Eur J Med Chem, 2023).

In data set [1] the test system is Human immunodeficiency virus 1. The data set is described as follows: Anti-HIV activity against wild type HIV-1 IIIB infected in human MT4 cells assessed as inhibition of virus-induced cytopathic effect by MTT assay. Conditions: Human immunodeficiency virus 1, IIIB. Format: functional, organism-based. A general note: Cytopathic effects are the visible damage that an infection or toxin causes in cultured cells.

Data set [2] is described as follows: Cytotoxicity against human MT4 cells assessed as reduction in cell viability by MTT assay. Format: toxicity, cell-based. In general terms: Formazan colour is commonly taken as a measure of viable cells.
The nature of data set [3]: Selectivity index, ratio of CC50 for cytotoxicity against human MT4 cells assessed as reduction in cell viability by MTT assay to EC50 for anti-HIV activity against wild type HIV-1 IIIB infected in human MT4 cells assessed as inhibition of virus-induced cytopathic effect by MTT assay. Conditions: read-out: Ratio CC50/EC50. Format: toxicity, cell-based.
Data set [4] relates to Human immunodeficiency virus 1. The data set is described as follows: Anti-HIV activity against drug resistant HIV-1 harboring L100I mutant infected in human MT4 cells assessed as inhibition of virus-induced cytopathic effect by MTT assay. The data set is classed as functional, organism-based. The following applies: Human immunodeficiency virus 1, MT4.
Data set [5] concerns Human immunodeficiency virus 1. The data set is described as follows: Anti-HIV activity against drug resistant HIV-1 harboring K103N mutant infected in human MT4 cells assessed as inhibition of virus-induced cytopathic effect by MTT assay. Format: functional, organism-based. Conditions: Human immunodeficiency virus 1, MT4.
The test system of data set [6] is Human immunodeficiency virus 1. The data set is described as follows: Anti-HIV activity against drug resistant HIV-1 harboring Y181C mutant infected in human MT4 cells assessed as inhibition of virus-induced cytopathic effect by MTT assay. Format: functional, organism-based. Conditions: Human immunodeficiency virus 1, MT4.
Data set [7] relates to Human immunodeficiency virus 1. The data set is described as follows: Anti-HIV activity against drug resistant HIV-1 harboring Y188L mutant infected in human MT4 cells assessed as inhibition of virus-induced cytopathic effect by MTT assay. Format: functional, organism-based. Conditions: Human immunodeficiency virus 1, MT4.
The test system of data set [8] is Human immunodeficiency virus 1. The data set is described as follows: Anti-HIV activity against drug resistant HIV-1 harboring E138K mutant infected in human MT4 cells assessed as inhibition of virus-induced cytopathic effect by MTT assay. The data set is classed as functional, organism-based. The following applies: Human immunodeficiency virus 1, MT4.
Data set [9] deals with Human immunodeficiency virus 1. In words: Anti-HIV activity against drug resistant HIV-1 harboring F227L/V106A mutant infected in human MT4 cells assessed as inhibition of virus-induced cytopathic effect by MTT assay. Format: functional, organism-based. Conditions: Human immunodeficiency virus 1, MT4.
The target of data set [10] is Human immunodeficiency virus type 1 reverse transcriptase (Human immunodeficiency virus 1, UniProt Q72547). In words: Inhibition of wild type HIV-1 reverse transcriptase assessed as assessed as inhibition of biotin deoxyuridine triphosphate incorporation into […].
The next data set deals with T1, Cytochrome P450 1A2 (Homo sapiens, UniProt P05177).
T1 sequence (P05177 whole entry): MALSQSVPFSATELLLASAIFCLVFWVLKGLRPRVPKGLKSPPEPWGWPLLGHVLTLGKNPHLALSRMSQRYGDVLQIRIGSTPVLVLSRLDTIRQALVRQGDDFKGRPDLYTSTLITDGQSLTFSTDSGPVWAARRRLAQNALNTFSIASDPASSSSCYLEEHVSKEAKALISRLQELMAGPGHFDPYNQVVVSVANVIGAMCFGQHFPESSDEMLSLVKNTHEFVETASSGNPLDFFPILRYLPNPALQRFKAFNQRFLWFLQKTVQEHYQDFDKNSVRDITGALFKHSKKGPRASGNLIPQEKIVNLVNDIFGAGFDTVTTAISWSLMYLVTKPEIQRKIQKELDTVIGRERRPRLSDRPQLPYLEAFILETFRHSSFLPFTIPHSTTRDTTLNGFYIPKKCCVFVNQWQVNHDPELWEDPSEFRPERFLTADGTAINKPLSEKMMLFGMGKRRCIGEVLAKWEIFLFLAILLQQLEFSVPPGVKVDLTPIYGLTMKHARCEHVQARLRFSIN
The data set is described as follows: Inhibition of CYP1A2 in human liver microsomes using phenacetin as substrate measured after 10 mins in presence of NADPH. The data set is classed as ADME, Microsome.

In a further data set the target is Cytochrome P450 2C9 (Homo sapiens, UniProt P11712). In words: Inhibition of CYP2C9 in human liver microsomes using tolbutamide as substrate measured after 10 mins in presence of NADPH. The data set is classed as ADME, Microsome.
A further data set addresses Cytochrome P450 2C19 (Homo sapiens, UniProt P33261). In words: Inhibition of CYP2C19 in human liver microsomes using mephenytoin as substrate measured after 10 mins in presence of NADPH. The data set is classed as ADME, Microsome.
A further data set concerns the target Cytochrome P450 2D6 (Homo sapiens, UniProt P10635). In words: Inhibition of CYP2D6 in human liver microsomes using dextromethorphan as substrate measured after 10 mins in presence of NADPH. Format: ADME, Microsome. In general terms: Liver microsomes are vesicles of endoplasmic reticulum, rich in cytochrome P450 enzymes.
For data set [11], the target named is T2, Cytochrome P450 3A4 (Homo sapiens, UniProt P08684). The data set is described as follows: Inhibition of CYP3A4T in human liver microsomes using testosterone as substrate measured after 10 mins in presence of NADPH. Format: ADME, Microsome.
Data set [12] deals with T2, Cytochrome P450 3A4. The data set is described as follows: Inhibition of CYP3A4M in human liver microsomes using midazolam as substrate measured after 10 mins in presence of NADPH. The data set is classed as ADME, Microsome.
A further data set has as its target hERG (KCNH2) (Homo sapiens, UniProt Q12809). In words: Inhibition of human ERG expressed in CHO cells at 40 uM by automated patch-clamp electrophysiological assay. The data set is classed as toxicity, cell-based. Conditions: CHO cells that express hERG.
Data set [13] in a line: Acute toxicity in mouse assessed as change in body weight at 1000 mg/kg, po. Format: organism-based. Conditions: in vivo.
Data set [14] in a line: Acute toxicity in mouse assessed as histopathological changes in heart at 1000 mg/kg, po by Hematoxylin and eosin staining based microscopy. The data set is classed as organism-based. Conditions: in vivo.
Data set [15] can be described thus: Acute toxicity in mouse assessed as histopathological changes in liver at 1000 mg/kg, po by Hematoxylin and eosin staining based microscopy. The data set is classed as organism-based. Conditions: in vivo.
Data set [16] in a line: Acute toxicity in mouse assessed as histopathological changes in spleen at 1000 mg/kg, po by Hematoxylin and eosin staining based microscopy. The data set is classed as organism-based. The following applies: in vivo.
Data set [17] in a line: Acute toxicity in mouse assessed as histopathological changes in lung at 1000 mg/kg, po by Hematoxylin and eosin staining based microscopy. Format: organism-based. Conditions: in vivo.
The nature of data set [18]: Acute toxicity in mouse assessed as histopathological changes in kidney at 1000 mg/kg, po by Hematoxylin and eosin staining based microscopy. The data set is classed as organism-based. Conditions: in vivo.
Data set [19] can be described thus: Acute toxicity in mouse assessed as histopathological changes in brain at 1000 mg/kg, po by Hematoxylin and eosin staining based microscopy. Format: organism-based. Conditions: in vivo.

T2 sequence (P08684 whole entry): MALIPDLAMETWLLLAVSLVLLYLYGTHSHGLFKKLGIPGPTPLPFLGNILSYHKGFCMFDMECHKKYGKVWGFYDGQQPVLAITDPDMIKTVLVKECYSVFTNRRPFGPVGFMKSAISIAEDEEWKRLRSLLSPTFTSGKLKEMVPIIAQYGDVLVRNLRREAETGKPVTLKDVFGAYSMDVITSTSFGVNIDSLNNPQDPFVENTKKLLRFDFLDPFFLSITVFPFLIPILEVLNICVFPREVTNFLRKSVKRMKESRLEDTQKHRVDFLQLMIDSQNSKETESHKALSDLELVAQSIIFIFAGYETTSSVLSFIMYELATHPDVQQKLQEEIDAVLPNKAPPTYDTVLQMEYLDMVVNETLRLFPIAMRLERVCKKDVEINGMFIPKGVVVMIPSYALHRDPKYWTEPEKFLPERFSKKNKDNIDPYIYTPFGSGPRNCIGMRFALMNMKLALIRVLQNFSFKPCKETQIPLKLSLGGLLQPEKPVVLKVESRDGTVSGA
Chain of hERG (KCNH2) (Q12809 whole entry): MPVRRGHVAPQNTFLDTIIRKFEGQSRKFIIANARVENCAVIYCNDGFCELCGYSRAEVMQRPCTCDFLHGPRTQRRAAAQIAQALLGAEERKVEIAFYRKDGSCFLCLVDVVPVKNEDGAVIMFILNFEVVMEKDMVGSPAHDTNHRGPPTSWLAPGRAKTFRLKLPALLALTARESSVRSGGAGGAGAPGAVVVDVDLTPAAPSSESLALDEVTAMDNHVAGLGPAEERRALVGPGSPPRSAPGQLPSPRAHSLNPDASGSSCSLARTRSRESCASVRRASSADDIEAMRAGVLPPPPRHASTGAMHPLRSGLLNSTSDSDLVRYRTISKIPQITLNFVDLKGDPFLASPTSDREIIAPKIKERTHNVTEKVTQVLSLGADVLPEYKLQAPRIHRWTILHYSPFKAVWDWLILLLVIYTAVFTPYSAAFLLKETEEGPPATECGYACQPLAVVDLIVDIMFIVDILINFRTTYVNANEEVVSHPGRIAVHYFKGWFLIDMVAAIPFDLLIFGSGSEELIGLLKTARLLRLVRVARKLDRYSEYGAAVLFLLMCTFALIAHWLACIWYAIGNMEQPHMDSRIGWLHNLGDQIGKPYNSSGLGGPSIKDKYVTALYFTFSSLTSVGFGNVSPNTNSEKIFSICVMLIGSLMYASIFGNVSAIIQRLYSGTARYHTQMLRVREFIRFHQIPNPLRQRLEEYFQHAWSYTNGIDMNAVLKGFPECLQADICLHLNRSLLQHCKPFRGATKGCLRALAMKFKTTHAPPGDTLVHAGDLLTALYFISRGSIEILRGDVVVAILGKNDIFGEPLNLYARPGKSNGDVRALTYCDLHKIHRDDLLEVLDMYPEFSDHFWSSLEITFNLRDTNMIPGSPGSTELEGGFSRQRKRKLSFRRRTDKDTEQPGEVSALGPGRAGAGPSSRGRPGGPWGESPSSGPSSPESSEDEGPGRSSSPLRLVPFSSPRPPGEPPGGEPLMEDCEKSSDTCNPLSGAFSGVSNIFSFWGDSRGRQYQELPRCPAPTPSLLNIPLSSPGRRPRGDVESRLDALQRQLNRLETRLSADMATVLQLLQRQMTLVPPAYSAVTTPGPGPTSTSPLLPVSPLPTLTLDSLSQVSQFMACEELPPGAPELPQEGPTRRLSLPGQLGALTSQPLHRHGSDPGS
Chain of Cytochrome P450 2C9 (P11712 whole entry): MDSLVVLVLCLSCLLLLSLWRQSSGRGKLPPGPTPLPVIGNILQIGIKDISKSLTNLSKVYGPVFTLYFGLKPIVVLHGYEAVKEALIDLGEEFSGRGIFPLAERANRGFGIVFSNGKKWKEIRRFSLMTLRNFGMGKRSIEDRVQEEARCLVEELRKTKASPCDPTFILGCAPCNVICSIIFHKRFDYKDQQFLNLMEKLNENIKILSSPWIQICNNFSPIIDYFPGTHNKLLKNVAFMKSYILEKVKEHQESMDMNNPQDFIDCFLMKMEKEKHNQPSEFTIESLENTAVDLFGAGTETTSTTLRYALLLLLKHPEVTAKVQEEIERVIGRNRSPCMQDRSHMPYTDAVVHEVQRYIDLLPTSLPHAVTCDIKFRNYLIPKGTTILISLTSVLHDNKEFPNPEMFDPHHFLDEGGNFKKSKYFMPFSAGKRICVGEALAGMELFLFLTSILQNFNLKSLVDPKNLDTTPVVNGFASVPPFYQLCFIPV
Chain of Cytochrome P450 2C19 (P33261 whole entry): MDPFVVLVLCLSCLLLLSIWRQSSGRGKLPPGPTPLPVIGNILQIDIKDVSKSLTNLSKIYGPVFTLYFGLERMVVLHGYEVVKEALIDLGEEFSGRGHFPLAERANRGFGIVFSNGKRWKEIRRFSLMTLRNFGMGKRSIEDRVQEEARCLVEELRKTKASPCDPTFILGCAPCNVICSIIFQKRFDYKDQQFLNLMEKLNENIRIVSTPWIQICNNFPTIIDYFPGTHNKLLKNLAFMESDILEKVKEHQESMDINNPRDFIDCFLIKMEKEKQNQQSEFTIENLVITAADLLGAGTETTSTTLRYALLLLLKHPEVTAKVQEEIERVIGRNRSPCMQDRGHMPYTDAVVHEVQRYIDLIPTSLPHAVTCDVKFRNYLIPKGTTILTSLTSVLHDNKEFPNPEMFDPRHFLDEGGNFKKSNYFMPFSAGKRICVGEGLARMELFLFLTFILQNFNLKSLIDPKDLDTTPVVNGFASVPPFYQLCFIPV
Chain of Cytochrome P450 2D6 (P10635 whole entry): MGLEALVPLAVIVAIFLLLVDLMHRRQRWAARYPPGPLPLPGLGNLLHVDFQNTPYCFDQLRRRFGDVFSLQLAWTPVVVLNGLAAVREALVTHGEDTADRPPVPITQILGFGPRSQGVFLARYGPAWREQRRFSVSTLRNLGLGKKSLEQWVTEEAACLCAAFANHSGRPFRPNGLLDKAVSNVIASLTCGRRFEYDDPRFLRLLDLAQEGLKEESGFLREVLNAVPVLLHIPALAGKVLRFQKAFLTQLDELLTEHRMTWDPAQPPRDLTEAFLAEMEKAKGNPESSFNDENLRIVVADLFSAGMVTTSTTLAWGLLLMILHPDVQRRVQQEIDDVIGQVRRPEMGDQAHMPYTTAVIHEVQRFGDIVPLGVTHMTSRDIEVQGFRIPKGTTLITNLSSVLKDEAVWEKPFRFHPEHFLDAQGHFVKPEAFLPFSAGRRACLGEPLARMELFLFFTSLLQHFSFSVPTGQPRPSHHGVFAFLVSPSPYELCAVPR

For the compound `Cc1cc(C)cc(C(N=[N+]=[N-])c2nc(SC(C)C)[nH]c(=O)c2C)c1` (stereo not drawn), the EC50 (as a rule, the concentration at which the effect is half-maximal) in [1] was determined as 0.053 µM; in data set [4], 1.05 µM; in data set [5], 2.51 µM; in data set [6] it was 2.28 µM; in data set [7], 203 µM; in [8] it was 0.26 µM. In addition, the EC50 in data set [9] worked out at 7.88 µM. The CC50 (commonly the concentration at which the toxic effect on the cells reaches its halfway point) in data set [2] is above 364 µM. In addition, the selectivity ratio in [3] is above 6820. Also, the IC50 (as a rule, the midpoint of a concentration-inhibition curve) is 0.08 µM in [10]; above 50 µM at Cytochrome P450 1A2; 35.8 µM on Cytochrome P450 2C9; 27.1 µM on Cytochrome P450 2C19; above 50 µM at Cytochrome P450 2D6; above 50 µM at Cytochrome P450 3A4 [11]. Moreover, at Cytochrome P450 3A4 [12], the IC50 is above 50 µM. Besides, 40 µM produced 41.4% inhibition at hERG (KCNH2). Moreover, the Activity entry in data set [13], in [14], in data set [15], in data set [16], in data set [17] and in data set [18] was “Non-Toxic” each time. In data set [19], the Activity entry is recorded as “Non-Toxic”.
Turning to `CCc1c(C(N=[N+]=[N-])c2ccc(C)cc2)nc(SC(C)C)[nH]c1=O` (stereo not drawn), the EC50 in [1] was 0.16 µM; in [4], 0.13 µM; in data set [5], 3.9 µM; in data set [6], 114 µM; in data set [7] it was above 364 µM; in data set [8] it was 0.45 µM. In data set [9], the EC50 came to 314 µM. Moreover, the 50% cytotoxic concentration (CC50) in data set [2] is above 364 µM. Further, the selectivity ratio in [3] was above 2300. The half-maximal inhibitory concentration (IC50) in [10] came to 0.17 µM.
Turning to `CCc1c(C(N=[N+]=[N-])c2cc(C)cc(C)c2)nc(SC(C)C)[nH]c1=O` (stereo not drawn), the EC50 in [1] was 0.067 µM; in data set [4] it was 0.97 µM; in [5], 4.82 µM; in [6], 4.68 µM; in data set [7], above 350 µM; in data set [8], 0.41 µM. Further, in data set [9], the EC50 came to 14.3 µM. Further, the CC50 in data set [2] is above 350 µM. Further, the selectivity ratio in data set [3] was above 5240. In addition, the IC50 in data set [10] is 0.1 µM.
`COc1cc(OC)cc(C(N=[N+]=[N-])c2nc(SC(C)C)[nH]c(=O)c2C(C)C)c1` (stereo not drawn): the EC50 in data set [1] is 1.78 µM; in [4] it was 10.2 µM; in [5], above 139 µM; in [6], 54.7 µM; in [7], 63.1 µM; in [8], 4.56 µM. Moreover, the EC50 in [9] was 58.9 µM. In addition, in data set [2], the CC50 was determined as 97.6 µM. Also, the selectivity ratio in data set [3] worked out at 55.
